We go through 25 compounds from patent US20260242335A1, “HETEROCYCLOALKYL BETA-HYDROXY ALKYL AMINES FOR USE IN THE TREATMENT OF HYPERGLYCAEMIA AND DISORDERS CHARACTERISED BY HYPERGLYCAEMIA” (ATROGI AB, priority 2023, published 2026).

Where a name gives a salt, the structure may show the parent alone.

In experiment [1] the test system is L6-myotubes. In words: Glucose uptake (3H-2-deoxyglucose) in differentiated L6-myotubes, compared to isoproterenol. In kind it is cell-based. The conditions noted are these: compound at 10 μM vs isoproterenol at 10 μM, read-out: Biological example 1: glucose uptake activity compared to that of isoproterenol. The essentials: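 Differentiated L6 myotubes, serum-starved overnight in 0.5% fatty-acid-free BSA, were pretreated 1 h 40 min with agonist at 1×10^−5 M final, then re-dosed in glucose-free medium for 20 min. Uptake of 50 nM 3H-2-deoxyglucose over 10 min was read by scintillation counting and compared with isoproterenol.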

For experiment [2], the system named is L6-myotubes. In words: Measurement of intracellular cAMP levels (alpha screen cAMP kit) in differentiated cells, compared to isoproterenol. In kind it is cell-based. The conditions noted are these: 0.25 h, compound at 10 μM vs isoproterenol at 10 μM, 15 min stimulation, read-out: Biological example 2: intracellular cAMP level activity compared to that of isoproterenol. In outline:
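Rat L6 myoblasts differentiated to myotubes over 7 days in 2% FBS, serum-starved overnight, then stimulated 15 min with agonist at 1×10^−5 M final in HBSS with 1 mM IBMX, pH 7.4. cAMP measured by AlphaScreen after ethanol extraction and lysis; activity expressed relative to isoproterenol.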

Consider `CC(C)(C[C@H]1CCN(C(=O)OC(C)(C)C)C1)NC[C@H](O)c1cncc(F)c1` [Example 60, tert-Butyl (R)-3-(2-(((R)-2-(5-fluoropyridin-3-yl)-2-hydroxyethyl)-amino)-2-methylpropyl)pyrrolidine-1-carboxylate], for which the values for the Emax at 10 µM in the experiment on L6-myotubes [1] and with L6-myotubes [2] were 50 to 75% and below 25%, respectively.
`CC(=O)N1CC[C@H](CC(C)(C)NC[C@H](O)c2cncc(F)c2)C1` [Example 62, 1-((R)-3-(2-(((R)-2-(5-Fluoropyridin-3-yl)-2-hydroxyethyl)amino)-2-methylpropyl)pyrrolidin-1-yl)ethan-1-one]: the Emax at 10 µM with L6-myotubes [1] is above 75%; in the experiment with L6-myotubes [2], below 25%.
Take `CC(C)(C[C@H]1CCN(S(C)(=O)=O)C1)NC[C@H](O)c1cncc(F)c1` [Example 63, (R)-1-(5-Fluoropyridin-3-yl)-2-((2-methyl-1-((R)-1-(methylsulfonyl)-pyrrolidin-3-yl)propan-2-yl)amino)ethan-1-ol]: the Emax at 10 µM was above 75% in the experiment with L6-myotubes [1] and below 25% in the experiment with L6-myotubes [2].
Turning to `CC(C)(C[C@@H]1CCN(C(=O)OC(C)(C)C)C1)NC[C@H](O)c1cccc(F)c1` [Example 64, tert-Butyl (S)-3-(2-(((R)-2-(3-fluorophenyl)-2-hydroxyethyl)amino)-2-methylpropyl)pyrrolidine-1-carboxylate], the Emax at 10 µM with L6-myotubes [1] was 50 to 75%; with L6-myotubes [2] it was above 75%.
The corresponding values for `CC(C)(C[C@@H]1CCNC1)NC[C@H](O)c1cccc(F)c1` [Example 65, (R)-1-(3-Fluorophenyl)-2-((2-methyl-1-((S)-pyrrolidin-3-yl)propan-2-yl)amino)ethan-1-ol] are above 75% and above 75%.
As to `CC(=O)N1CC[C@@H](CC(C)(C)NC[C@H](O)c2cccc(F)c2)C1` [Example 66, 1-((S)-3-(2-(((R)-2-(3-Fluorophenyl)-2-hydroxyethyl)amino)-2-methylpropyl)pyrrolidin-1-yl)ethan-1-one], the Emax at 10 µM with L6-myotubes [1] was above 75%; in the experiment on L6-myotubes [2], 25 to 50%.
As for `CC(C)(C[C@@H]1CCN(S(C)(=O)=O)C1)NC[C@H](O)c1cccc(F)c1` [Example 67, (R)-1-(3-Fluorophenyl)-2-((2-methyl-1-((S)-1-(methylsulfonyl)-pyrrolidin-3-yl)propan-2-yl)amino)ethan-1-ol], the Emax at 10 µM in the experiment on L6-myotubes [1] was above 75%; in the experiment with L6-myotubes [2] it was below 25%.
The matching figures for `CC(C)(C[C@@H]1CCN(C(=O)OC(C)(C)C)C1)NC[C@H](O)c1cncc(F)c1` [Example 68, tert-Butyl (S)-3-(2-(((R)-2-(5-fluoropyridin-3-yl)-2-hydroxyethyl)-amino)-2-methylpropyl)pyrrolidine-1-carboxylate]: above 75% and 25 to 50%.
Turning to `CC(C)(C[C@@H]1CCNC1)NC[C@H](O)c1cncc(F)c1` [Example 69, (R)-1-(5-Fluoropyridin-3-yl)-2-((2-methyl-1-((S)-pyrrolidin-3-yl)-propan-2-yl)amino)ethan-1-ol], the Emax at 10 µM was above 75% in the experiment with L6-myotubes [1] and below 25% in the experiment with L6-myotubes [2].
As for `CC(=O)N1CC[C@@H](CC(C)(C)NC[C@H](O)c2cncc(F)c2)C1` [Example 70, 1-((S)-3-(2-(((R)-2-(5-Fluoropyridin-3-yl)-2-hydroxyethyl)amino)-2-methylpropyl)pyrrolidin-1-yl)ethan-1-one], the Emax at 10 µM was above 75% in the experiment with L6-myotubes [1] and below 25% with L6-myotubes [2].
In the case of `CC(C)(C[C@@H]1CCN(S(C)(=O)=O)C1)NC[C@H](O)c1cncc(F)c1` [Example 71, (R)-1-(5-Fluoropyridin-3-yl)-2-((2-methyl-1-((S)-1-(methylsulfonyl)-pyrrolidin-3-yl)propan-2-yl)amino)ethan-1-ol], the Emax at 10 µM is above 75% in the experiment with L6-myotubes [1] and below 25% in the experiment with L6-myotubes [2].
As for `CC(C)(C[C@@H]1CNC(=O)C1)NC[C@H](O)c1cccc(F)c1` [Example 72, (S)-4-(2-(((R)-2-(3-Fluorophenyl)-2-hydroxyethyl)amino)-2-methyl-propyl)pyrrolidin-2-one hydrochloride], the Emax at 10 µM in the experiment with L6-myotubes [1] was above 75%; with L6-myotubes [2], 50 to 75%.
Turning to `CC(C)(C[C@H]1CCNC1=O)NC[C@H](O)c1cccc(F)c1` [Example 73, (R)-3-(2-(((R)-2-(3-Fluorophenyl)-2-hydroxyethyl)amino)-2-methyl-propyl)pyrrolidin-2-one hydrochloride], the results for the Emax at 10 µM in the experiment with L6-myotubes [1] and in the experiment on L6-myotubes [2] were above 75% and below 25%, respectively.
In the case of `CC(C)(C[C@@H]1CNC(=O)C1)NC[C@H](O)c1cncc(F)c1` [Example 74, (S)-4-(2-(((R)-2-(5-Fluoropyridin-3-yl)-2-hydroxyethyl)amino)-2-methylpropyl)pyrrolidin-2-one dihydrochloride], the Emax at 10 µM is above 75% in the experiment on L6-myotubes [1] and 25 to 50% in the experiment on L6-myotubes [2].
The matching figures for `CC(C)(C[C@H]1CCNC1=O)NC[C@H](O)c1cncc(F)c1` [Example 75, (R)-3-(2-(((R)-2-(5-Fluoropyridin-3-yl)-2-hydroxyethyl)amino)-2-methylpropyl)pyrrolidin-2-one dihydrochloride]: 25 to 50% and below 25%.
On to `CC(C)(C[C@H]1CNC(=O)C1)NC[C@H](O)c1cccc(F)c1` [Example 76, (R)-4-(2-(((R)-2-(3-Fluorophenyl)-2-hydroxyethyl)amino)-2-methyl-propyl)pyrrolidin-2-one hydrochloride], for which the Emax at 10 µM is above 75% with L6-myotubes [1] and below 25% in the experiment on L6-myotubes [2].
Regarding `CC(C)(C[C@@H]1CCNC1=O)NC[C@H](O)c1cccc(F)c1` [Example 77, (S)-3-(2-(((R)-2-(3-Fluorophenyl)-2-hydroxyethyl)amino)-2-methyl-propyl)pyrrolidin-2-one hydrochloride], the Emax at 10 µM in the experiment with L6-myotubes [1] was 50 to 75%; in the experiment with L6-myotubes [2] it was below 25%.
In the case of `CC(C)(C[C@H]1CNC(=O)C1)NC[C@H](O)c1cncc(F)c1` [Example 78, (R)-4-(2-(((R)-2-(5-Fluoropyridin-3-yl)-2-hydroxyethyl)amino)-2-methylpropyl)pyrrolidin-2-one dihydrochloride], the Emax at 10 µM in the experiment on L6-myotubes [1] is above 75%; in the experiment with L6-myotubes [2], below 25%.
Turning to `CC(C)(CC1CCOCC1)NC[C@H](O)c1cccc(F)c1` [Example 80, (R)-1-(3-Fluorophenyl)-2-((2-methyl-1-(tetrahydro-2H-pyran-4-yl)-propan-2-yl)amino)ethan-1-ol], the Emax at 10 µM in the experiment on L6-myotubes [1] is above 75%; in the experiment with L6-myotubes [2], below 25%.
`CC(C)(C[C@H]1CCCCO1)NC[C@H](O)c1cccc(F)c1` [Example 81, (R)-1-(3-Fluorophenyl)-2-((2-methyl-1-((R)-tetrahydro-2H-pyran-2-yl)propan-2-yl)amino)ethan-1-ol]: the Emax at 10 µM was above 75% in the experiment on L6-myotubes [1] and 25 to 50% in the experiment with L6-myotubes [2].
Consider `CC(C)(C[C@@H]1CCCCO1)NC[C@H](O)c1cccc(F)c1` [Example 82, (R)-1-(3-Fluorophenyl)-2-((2-methyl-1-((S)-tetrahydro-2H-pyran-2-yl)propan-2-yl)amino)ethan-1-ol], for which the Emax at 10 µM is above 75% with L6-myotubes [1] and below 25% in the experiment on L6-myotubes [2].
On to `CC(C)(C[C@H]1CCCOC1)NC[C@H](O)c1cccc(F)c1` [Example 83, (R)-1-(3-Fluorophenyl)-2-((2-methyl-1-((R)-tetrahydro-2H-pyran-3-yl)propan-2-yl)amino)ethan-1-ol], for which the Emax at 10 µM in the experiment with L6-myotubes [1] is above 75%; with L6-myotubes [2], below 25%.
Take `CC(C)(C[C@@H]1CCCOC1)NC[C@H](O)c1cccc(F)c1` [Example 84, (R)-1-(3-Fluorophenyl)-2-((2-methyl-1-((S)-tetrahydro-2H-pyran-3-yl)propan-2-yl)amino)ethan-1-ol]: the Emax at 10 µM is above 75% with L6-myotubes [1] and 50 to 75% in the experiment on L6-myotubes [2].
With `COC1CCN(CC(C)(C)NC[C@H](O)c2cccc(F)c2)CC1` [Example 85, (R)-1-(3-Fluorophenyl)-2-((1-(4-methoxypiperidin-1-yl)-2-methyl-propan-2-yl)amino)ethan-1-ol dihydrochloride], the Emax at 10 µM in the experiment on L6-myotubes [1] was above 75%; with L6-myotubes [2] it was below 25%.
`CC(=O)N1CCN(CC(C)(C)NC[C@H](O)c2cccc(F)c2)CC1` [Example 86, (R)-1-(4-(2-((2-(3-Fluorophenyl)-2-hydroxyethyl)amino)-2-methyl-propyl)piperazin-1-yl)ethan-1-one dihydrochloride]: the Emax at 10 µM in the experiment with L6-myotubes [1] was above 75%; in the experiment with L6-myotubes [2], below 25%.
